From patent US20180289713A1, “COMPOUNDS FOR TREATING AMYOTROPHIC LATERAL SCLEROSIS” (Hoffmann-La Roche Inc., priority 2015, published 2018)

Test system: SMN protein in SMA patient fibroblast cells
Assay: SMN protein assay in cultured cells (SMN HTRF)
Type: cell-based, human
Details: concentration producing 1.5 times SMN protein vs vehicle; SMA patient fibroblasts, 48 hours, 7-point curve
From the text: The term “EC1.5× concentration for SMN protein expression” (or “EC1.5× SMN protein”) is defined as that concentration of test compound that is effective in producing 1.5 times the amount of SMN protein in an SMA patient fibroblast cell compared to the amount produced from the vehicle control.
The SMN HTRF (homogeneous time resolved fluorescence) assay is used to quantify the level of SMN protein in SMA patient fibroblast cells treated with test compounds. Materials used and respective sources are listed below in Table 3.
Cells are thawed and cultured in DMEM-10% FBS for 72 hours. Cells are trypsinized, counted and re-suspended to a concentration of 25,000 cells/mL in DMEM-10% FBS. The cell suspensions are plated at 5,000 cells per well in a 96 well microtiter plate and incubated for 3 to […]. Test compounds are serially diluted 3.16-fold in 100% DMSO to generate a 7-point concentration curve. 1 μL of test compound solution is transferred to cell-containing wells and cells are incubated for 48 hours in a cell culture incubator (37° C., 5% CO2, 100% relative humidity). Triplicate samples are set up for each test compound concentration. After 48 hours, the supernatant is removed from the wells and 25 μL of the RIPA lysis buffer, containing protease inhibitors, is added to the wells and incubated with shaking at room temperature for 1 hour. 25 μL of the diluent is added and then 35 μL of the resulting lysate is transferred to a 384-well plate, where each well contains 5 μL of the antibody solution (1:100 dilution of anti-SMN d2 and anti-SMN kryptate in SMN reconstitution buffer). The plate is centrifuged for 1 minute to bring the solution to the bottom of the wells, then incubated overnight at room temperature. Fluorescence for each well of the plate at 665 nm and 620 nm is measured on an EnVision multilabel plate reader (Perkin-Elmer).
The normalized fluorescence signal is calculated for each sample, Blank and vehicle control well by dividing the signal at 665 nm by the signal at 620 nm. Normalizing the signal accounts for possible fluorescence quenching due to the matrix effect of the lysate. The ΔF value (a measurement of SMN protein abundance as a percent value) for each sample well is calculated by subtracting the normalized average fluorescence for the Blank control wells from the normalized fluorescence for each sample well, then dividing this difference by the normalized average fluorescence for the Blank control wells and multiplying the resulting value by 100. The ΔF value for each sample well represents the SMN protein abundance from test compound-treated samples. The ΔF value for each sample well is divided by the ΔF value for the vehicle control wells to calculate the fold increase in SMN protein abundance relative to the vehicle control. Table 4 provides EC1.5× concentrations for SMN protein expression that was obtained from the 7-point concentration data generated according to the above procedure for particular compounds of the present invention.
Table 5 provides the maximum fold increase of SMN protein that was obtained from the 7-point concentration data generated according to the above procedure for particular compounds of the present invention

Cc1cn2nc(-c3cc(=O)n4cc(N5CCN6CCC[C@@]6(C)C5)ccc4n3)cc(C)c2n1 [Example 5, 7-[(8aS)-8a-methyl-1,3,4,6,7,8-hexahydropyrrolo[1,2-a]pyrazin-2-yl]-2-(2,8-dimethylimidazo[1,2-b]pyridazin-6-yl)pyrido[1,2-a]pyrimidin-4-one]
EC1.5x SMN protein: 4.1 nM

Cc1cn2nc(-c3cc(=O)n4cc(N5CCN6CCC[C@]6(C)C5)ccc4n3)cc(C)c2n1 [Example 6, 7-[(8aR)-8a-methyl-1,3,4,6,7,8-hexahydropyrrolo[1,2-a]pyrazin-2-yl]-2-(2,8-dimethylimidazo[1,2-b]pyridazin-6-yl)pyrido[1,2-a]pyrimidin-4-one]
EC1.5x SMN protein: 11 nM

Cc1cn2nc(-c3cc(=O)n4cc(N5CCN[C@@H](C)C5)ccc4n3)cc(C)c2n1 [Example 8, 2-(2,8-dimethylimidazo[1,2-b]pyridazin-6-yl)-7-[(3S)-3-methylpiperazin-1-yl]pyrido[1,2-a]pyrimidin-4-one]
EC1.5x SMN protein: 5.9 nM

Cc1cn2nc(-c3cc(=O)n4cc(N5CCN[C@H](C)C5)ccc4n3)cc(C)c2n1 [Example 9, 2-(2,8-dimethylimidazo[1,2-b]pyridazin-6-yl)-7-[(3R)-3-methylpiperazin-1-yl]pyrido[1,2-a]pyrimidin-4-one]
EC1.5x SMN protein: 2.5 nM

Cc1cn2nc(-c3cc(=O)n4cc(N5CCN[C@@H](C)C5)ccc4n3)ccc2n1 [Example 11, 2-(2-methylimidazo[1,2-b]pyridazin-6-yl)-7-[(3S)-3-methylpiperazin-1-yl]pyrido[1,2-a]pyrimidin-4-one]
EC1.5x SMN protein: 7 nM

Cc1cn2nc(-c3cc(=O)n4cc(N5CCN[C@H](C)C5)ccc4n3)ccc2n1 [Example 12, 2-(2-methylimidazo[1,2-b]pyridazin-6-yl)-7-[(3R)-3-methylpiperazin-1-yl]pyrido[1,2-a]pyrimidin-4-one]
EC1.5x SMN protein: 7.5 nM

Cc1cn2nc(-c3cc(=O)n4cc(N5CCCNCC5)ccc4n3)ccc2n1 [Example 13, 7-(1,4-diazepan-1-yl)-2-(2-methylimidazo[1,2-b]pyridazin-6-yl)pyrido[1,2-a]pyrimidin-4-one]
EC1.5x SMN protein: 3 nM

Cc1cn2nc(-c3cc(=O)n4cc(N5CCN6CCC[C@@]6(C)C5)ccc4n3)ccc2n1 [Example 16, 7-[(8aS)-8a-methyl-1,3,4,6,7,8-hexahydropyrrolo[1,2-a]pyrazin-2-yl]-2-(2-methylimidazo[1,2-b]pyridazin-6-yl)pyrido[1,2-a]pyrimidin-4-one]
EC1.5x SMN protein: 3 nM

Cc1cn2nc(-c3cc(=O)n4cc(N5CC[C@@H](N6CCCC6)C5)ccc4n3)cc(C)c2n1 [Example 18, 2-(2,8-dimethylimidazo[1,2-b]pyridazin-6-yl)-7-[(3R)-3-pyrrolidin-1-ylpyrrolidin-1-yl]pyrido[1,2-a]pyrimidin-4-one]
EC1.5x SMN protein: 25 nM

Cc1cn2nc(-c3cc(=O)n4cc(N5CCNC6(CC6)C5)ccc4n3)cc(C)c2n1 [Example 20, 7-(4,7-diazaspiro[2.5]octan-7-yl)-2-(2,8-dimethylimidazo[1,2-b]pyridazin-6-yl)pyrido[1,2-a]pyrimidin-4-one]
EC1.5x SMN protein: 37 nM

Cc1cn2nc(-c3cc(=O)n4cc(N5CCN[C@@H](C)C5)cc(C)c4n3)cc(C)c2n1 [Example 24, 2-(2,8-dimethylimidazo[1,2-b]pyridazin-6-yl)-9-methyl-7-[(3S)-3-methylpiperazin-1-yl]pyrido[1,2-a]pyrimidin-4-one]
EC1.5x SMN protein: 4.7 nM

Cc1cn2nc(-c3cc(=O)n4cc(N5C[C@H](C)N[C@@H](C)C5)ccc4n3)cc(C)c2n1 [Example 29, 2-(2,8-dimethylimidazo[1,2-b]pyridazin-6-yl)-7-[(3S,5S)-3,5-dimethylpiperazin-1-yl]pyrido[1,2-a]pyrimidin-4-one]
EC1.5x SMN protein: 2.1 nM

Cc1cn2nc(-c3cc(=O)n4cc(N5C[C@H](C)N[C@@H](C)C5)ccc4n3)ccc2n1 [Example 32, 7-[(3S,5S)-3,5-dimethylpiperazin-1-yl]-2-(2-methylimidazo[1,2-b]pyridazin-6-yl)pyrido[1,2-a]pyrimidin-4-one]
EC1.5x SMN protein: 4 nM

Cc1cn2nc(-c3cc(=O)n4cc(N5CCN[C@@H](C)C5)cc(C)c4n3)ccc2n1 [Example 33, 9-methyl-2-(2-methylimidazo[1,2-b]pyridazin-6-yl)-7-[(3S)-3-methylpiperazin-1-yl]pyrido[1,2-a]pyrimidin-4-one]
EC1.5x SMN protein: 4 nM

Cc1cn2nc(-c3cc(=O)n4cc(N5CCN[C@H](C)C5)cc(C)c4n3)ccc2n1 [Example 34, 9-methyl-2-(2-methylimidazo[1,2-b]pyridazin-6-yl)-7-[(3R)-3-methylpiperazin-1-yl]pyrido[1,2-a]pyrimidin-4-one]
EC1.5x SMN protein: 4.4 nM

Cc1cn2nc(-c3cc(=O)n4cc(N5CCNC6(CC6)C5)cc(C)c4n3)ccc2n1 [Example 37, 7-(4,7-diazaspiro[2.5]octan-7-yl)-9-methyl-2-(2-methylimidazo[1,2-b]ipyridazin-6-yl)pyrido[1,2-a]pyrimidin-4-one]
EC1.5x SMN protein: 45 nM

Cc1cn2nc(-c3cc(=O)n4cc(N5C[C@H](C)N[C@@H](C)C5)cc(C)c4n3)ccc2n1 [Example 38, 7-[(3S,5S)-3,5-dimethylpiperazin-1-yl]-9-methyl-2-(2-methylimidazo[1,2-b]pyridazin-6-yl)pyrido[1,2-a]pyrimidin-4-one]
EC1.5x SMN protein: 3.1 nM
